Legend:
[1] = Bulk stability (accelerated stability, one week; HPLC and XRPD)
Procedure: Bulk stability: Accelerated stability experiments were conducted at 25° C./92% RH and 40° C./75% RH in an open container, 60° C. in a tight container for one week.
Samples were characterized by XRPD and HPLC and inspected for color change.
Accelerated stability experiments were conducted at 25° C./92% RH in an open container, at 40° C./75% RH in an open container, and at 60° C. in a tight container for one week.

[2] = Solubility in buffers, water and simulated vaginal fluid at 37° C.; details: for pH of solution at 2 hrs: 37° C.; for solubility at 0.5 h / solubility at 2 h: 37 °C, thermodynamic from solid
Procedure: About 4 mg of Compound I Pattern 1 was added into 2 mL of buffer solution.
(§1) Solubility was tested in five media, pH 3.0 citrate buffer, pH 4.5 acetate buffer, pH 6.8 phosphate buffer, water, simulated vaginal fluid (pH 4.2) at 37° C. for 0.5 h and 2 h.
The salt amount used is equivalent to 10 mg anhydrous free base. […] The obtained clear solutions were analyzed by pH meter for pH, and solubility was determined by observation.
as §1

[3] = Tablet stability study (purity by HPLC); format: physicochemical
Procedure: Tablets were prepared using the excipients and excipient ratios shown in the first column of the following tables. The tablets were then stored under the conditions indicated and periodically sampled and tested for purity by HPLC.

[4] = Hygroscopicity by DVS at 25° C.; format: physicochemical; details: DVS 25° C.; for D. (%) Cycle 1: Desorption cycle 1; for D. (%) Cycle 2: Desorption cycle 2; for S. (%) Cycle 1: Sorption cycle 1; for S. (%) Cycle 2: Sorption cycle 2
Procedure: Hygroscopicity was investigated by DVS at 25° C., using the following method: […]

[5] = Approximate solubility in solvents at 25° C. and 50° C., visual observation; format: physicochemical
Procedure: The maximum volume of each solvent added was 1 mL. Approximate solubility was determined by visual observation.
Maximum volume of each solvent added was 1 mL. Approximate solubility was determined by visual observation.

[6] = 25° C., 92% RH, open container, one week
[7] = 40° C., 75% RH, open container, one week
[8] = 60° C., tight container, one week
[9] = acetate buffer, pH 4.5, aqueous buffer
[10] = citrate buffer, pH 3, aqueous buffer
[11] = phosphate buffer, pH 6.8, aqueous buffer
[12] = simulated vaginal fluid, pH 4.2, fassgf or other biorelevant
[13] = excipients Carbomer (49%) + Hydrated Dextrose (49%)
[14] = excipients Carbomer (49%) + Mannitol (49%)
[15] = excipients PC (49%) + Anhydrous Lactose (49%)
[16] = excipients PC (49%) + MCC (49%)

CCOC(=O)[C@H](C)NP(=O)(COCCn1cnc2c(OC)nc(N)nc21)OCc1ccccc1 (stereo partly drawn) [Compound I, ethyl(((2-(2-amino-6-methoxy-9H-purin-9-yl)ethoxy)methyl)(benzyloxy)-phosphoryl)-L-alaninate]
XRPD after storage ([1]; 25° C., 84% RH, open container, 2 days): No change
HPLC (purity) after storage [1, 6]: 98.5%
XRPD after storage [1, 6]: No change
HPLC (purity) after storage [1, 7]: 95.2%
XRPD after storage [1, 7]: No change
HPLC (purity) after storage [1, 8]: 98.5%
XRPD after storage [1, 8]: No change
HPLC (purity), Initial ([1]; initial, before storage): 98.7%
pH of solution at 2 hrs ([2]; Simulated vaginal fluid (pH adjusted with 0.2N NaOH)): (5.53)
pH of solution at 2 hrs ([2]; Water): (7.55)
solubility at 0.5 h [2, 9]: > 2 mg/mL
solubility at 2 h [2, 9]: > 2 mg/mL
solubility at 0.5 h [2, 10]: > 2 mg/mL
solubility at 2 h [2, 10]: > 2 mg/mL
pH of solution at 2 hrs ([2]; pH 3.0 100 mM citrate buffer): (2.98)
pH of solution at 2 hrs ([2]; pH 4.5 50 mM acetate buffer): (4.50)
pH of solution at 2 hrs ([2]; pH 6.8 50 mM phosphate buffer): (6.81)
solubility at 0.5 h [2, 11]: > 2 mg/mL
solubility at 2 h [2, 11]: > 2 mg/mL
solubility at 0.5 h [2, 12]: > 2 mg/mL
solubility at 2 h [2, 12]: > 2 mg/mL
solubility at 0.5 h ([2]; water): > 2 mg/mL
solubility at 2 h ([2]; water): > 2 mg/mL
purity by HPLC, 0 months [3, 13]: 99.52
purity by HPLC, 1 month 25 C./60% RH [3, 13]: 82.44
purity by HPLC, 1 month 40 C./75% RH [3, 13]: 0.17
purity by HPLC, 0 months [3, 14]: 98.87
purity by HPLC, 1 month 25 C./60% RH [3, 14]: 91.54
purity by HPLC, 1 month 40 C./75% RH [3, 14]: 6.75
purity by HPLC, 0 months [3, 15]: 99.40
purity by HPLC, 1 month 25 C./60% RH [3, 15]: 95.98
purity by HPLC, 1 month 40 C./75% RH [3, 15]: 41.3
purity by HPLC, 0 months [3, 16]: 98.64
purity by HPLC, 1 month 25 C./60% RH [3, 16]: 97.16
purity by HPLC, 1 month 40 C./75% RH [3, 16]: 46.11
D. (%) Cycle 1 ([4]; 0% RH): 0.00%
D. (%) Cycle 1 ([4]; 10% RH): 0.11%
D. (%) Cycle 1 ([4]; 20% RH): 0.23%
D. (%) Cycle 1 ([4]; 30% RH): 0.47%
D. (%) Cycle 1 ([4]; 40% RH): 0.60%
D. (%) Cycle 2 ([4]; 0% RH): 0.19%
D. (%) Cycle 2 ([4]; 10% RH): 0.37%
D. (%) Cycle 2 ([4]; 20% RH): 0.57%
D. (%) Cycle 2 ([4]; 30% RH): 0.83%
D. (%) Cycle 2 ([4]; 40% RH): 1.09%
D. (%) Cycle 2 ([4]; 50% RH): 1.48%
D. (%) Cycle 2 ([4]; 60% RH): 1.96%
D. (%) Cycle 2 ([4]; 70% RH): 2.78%
D. (%) Cycle 2 ([4]; 80% RH): 4.33%
D. (%) Cycle 2 ([4]; 90% RH): 9.10%
D. (%) Cycle 2 ([4]; 95% RH): 14.32%
S. (%) Cycle 1 ([4]; 0% RH): 0.00%
S. (%) Cycle 1 ([4]; 10% RH): 0.08%
S. (%) Cycle 1 ([4]; 20% RH): 0.17%
S. (%) Cycle 1 ([4]; 30% RH): 0.28%
S. (%) Cycle 1 ([4]; 40% RH): 0.41%
S. (%) Cycle 1 ([4]; 50% RH): 0.61%
S. (%) Cycle 1 ([4]; 60% RH): 0.85%
S. (%) Cycle 1 ([4]; 70% RH): 1.14%
S. (%) Cycle 1 ([4]; 80% RH): 1.64%
S. (%) Cycle 1 ([4]; 90% RH): 4.27%
S. (%) Cycle 1 ([4]; 95% RH): 14.32%
S. (%) Cycle 2 ([4]; 0% RH): 0.19%
S. (%) Cycle 2 ([4]; 10% RH): 0.22%
S. (%) Cycle 2 ([4]; 20% RH): 0.30%
S. (%) Cycle 2 ([4]; 30% RH): 0.44%
S. (%) Cycle 2 ([4]; 40% RH): 0.62%
Solubility (mg/mL) 25° C. ([5]; Acetone): >100 mg/mL
Solubility (mg/mL) 50° C. ([5]; Acetone): >500 mg/mL
Solubility (mg/mL) 25° C. ([5]; Acetonitrile): >100 mg/mL
Solubility (mg/mL) 50° C. ([5]; Acetonitrile): >500 mg/mL
Solubility (mg/mL) 25° C. ([5]; Dichloromethane): >100 mg/mL
Solubility (mg/mL) 50° C. ([5]; Dichloromethane): >500 mg/mL
Solubility (mg/mL) 25° C. ([5]; Ethanol): >100 mg/mL
Solubility (mg/mL) 50° C. ([5]; Ethanol): >500 mg/mL
Solubility (mg/mL) 25° C. ([5]; Ethyl acetate (EA)): >100 mg/mL
Solubility (mg/mL) 50° C. ([5]; Ethyl acetate (EA)): >500 mg/mL
Solubility (mg/mL) 25° C. ([5]; Heptanes): <2 mg/mL
Solubility (mg/mL) 50° C. ([5]; Heptanes): <10 mg/mL
Solubility (mg/mL) 25° C. ([5]; Isopropanol (IPA)): >100 mg/mL
Solubility (mg/mL) 50° C. ([5]; Isopropanol (IPA)): >500 mg/mL
Solubility (mg/mL) 25° C. ([5]; Isopropyl acetate): >100 mg/mL
Solubility (mg/mL) 50° C. ([5]; Isopropyl acetate): >500 mg/mL
Solubility (mg/mL) 25° C. ([5]; Methanol): >100 mg/mL
Solubility (mg/mL) 50° C. ([5]; Methanol): >500 mg/mL
Solubility (mg/mL) 25° C. ([5]; Methyl ethyl ketone): >100 mg/mL
Solubility (mg/mL) 50° C. ([5]; Methyl ethyl ketone): >500 mg/mL
Solubility (mg/mL) 25° C. ([5]; Methyl t-butyl ether (MTBE)): <2 mg/mL
Solubility (mg/mL) 50° C. ([5]; Methyl t-butyl ether (MTBE)): <10 mg/mL
Solubility (mg/mL) 25° C. ([5]; Tetrahydrofuran): >100 mg/mL
Solubility (mg/mL) 50° C. ([5]; Tetrahydrofuran): 167 to 250 mg/mL
Solubility (mg/mL) 25° C. ([5]; Water): 20 to 25 mg/mL
Solubility (mg/mL) 50° C. ([5]; Water): 25 to 27 mg/mL
